Experimental data from the supplement of paper PMC10307832.

Columns and labels:
Assay in all cases: relative viability (nuclei count vs DMSO), 5 days (fraction); higher = more cells survive
NCI-H441 = test system: NCI-H441
Summary of the method: (§1)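 Relative viability is defined as nuclei in treated wells over nuclei in vehicle wells. Duplicate plates were run and medians reported. Lung cancer cell lines in 1536-well plates were dosed by pin tool one day after seeding, with one drug or with a fixed anchor-drug dose plus five library-drug doses (not always all listed) in √10 steps, and nuclei were counted after 5 days.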

NCI-H838 = test system: NCI-H838
Summary of the method: as §1

LCLC-103H = test system: LCLC-103H
Summary of the method: as §1

NCI-H2087 = test system: NCI-H2087
Summary of the method: as §1

NCI-H647 = test system: NCI-H647
Summary of the method: as §1

LOU-NH91 = test system: LOU-NH91
Summary of the method: as §1

NCI-H650 = test system: NCI-H650
Summary of the method: as §1

NCI-H2126 = test system: NCI-H2126
Summary of the method: as §1

NCI-H1395 = test system: NCI-H1395
Summary of the method: as §1

HARA = test system: HARA
Summary of the method: as §1

HCC-44 = test system: HCC-44
Summary of the method: as §1

201T = test system: 201T
Summary of the method: as §1

NCI-H23 = test system: NCI-H23
Summary of the method: as §1

EMC-BAC-2 = test system: EMC-BAC-2
Summary of the method: as §1

NCI-H1993 = test system: NCI-H1993
Summary of the method: as §1

NCI-H596 = test system: NCI-H596
Summary of the method: as §1

NCI-H3122 = test system: NCI-H3122
Summary of the method: as §1

NCI-H2347 = test system: NCI-H2347
Summary of the method: as §1

NCI-H2023 = test system: NCI-H2023
Summary of the method: as §1

NCI-H1666 = test system: NCI-H1666
Summary of the method: as §1

NCI-H2009 = test system: NCI-H2009
Summary of the method: as §1

BEN = test system: BEN
Summary of the method: as §1

NCI-H727 = test system: NCI-H727
Summary of the method: as §1

In the case of C=C1C(=O)O[C@@H](CCCCCCCC)[C@@H]1C(=O)O [C-75] + C[C@]1(O)C[C@@H](c2nc(-c3ccc4ccc(-c5ccccc5)nc4c3)c3c(N)nccn32)C1 [Linsitinib] (partner 1 µM), the relative viability (NCI-H441; first compound 0.08 µM) was 0.476, the relative viability (NCI-H441; first compound 0.253 µM) was 0.592 and the relative viability (NCI-H441; first compound 0.8 µM) was 0.373. For the same compound, the relative viability (NCI-H441; first compound 2.53 µM) was 0.48, the relative viability (NCI-H441; first compound 8 µM) was 0.442 and the relative viability (NCI-H838; first compound 0.08 µM) was 0.935. For the same compound, the relative viability (NCI-H838; first compound 0.253 µM) was 0.706, the relative viability (NCI-H838; first compound 0.8 µM) was 1.01 and the relative viability (NCI-H838; first compound 2.53 µM) was 0.943. It also gave a relative viability (NCI-H838; first compound 8 µM) of 0.836, a relative viability (LCLC-103H; first compound 0.08 µM) of 0.999 and a relative viability (LCLC-103H; first compound 0.253 µM) of 1.29. For the same compound, the relative viability (LCLC-103H; first compound 0.8 µM) was 1.08, the relative viability (LCLC-103H; first compound 2.53 µM) was 0.862 and the relative viability (LCLC-103H; first compound 8 µM) was 1.09. For the same compound, the relative viability (NCI-H2087; first compound 0.08 µM) was 1.24, the relative viability (NCI-H2087; first compound 0.253 µM) was 0.898 and the relative viability (NCI-H2087; first compound 0.8 µM) was 0.975. It also gave a relative viability (NCI-H2087; first compound 2.53 µM) of 0.867, a relative viability (NCI-H2087; first compound 8 µM) of 1 and a relative viability (NCI-H647; first compound 0.08 µM) of 1.18. It also gave a relative viability (NCI-H647; first compound 0.253 µM) of 1.31, a relative viability (NCI-H647; first compound 2.53 µM) of 0.903 and a relative viability (NCI-H647; first compound 8 µM) of 0.823. It also gave a relative viability (LOU-NH91; first compound 0.08 µM) of 1, a relative viability (LOU-NH91; first compound 0.253 µM) of 0.82 and a relative viability (LOU-NH91; first compound 0.8 µM) of 0.875. For the same compound, the relative viability (LOU-NH91; first compound 2.53 µM) was 0.859, the relative viability (LOU-NH91; first compound 8 µM) was 1.02 and the relative viability (NCI-H650; first compound 0.08 µM) was 0.922. The relative viability (NCI-H650; first compound 0.253 µM) was 0.801, the relative viability (NCI-H650; first compound 0.8 µM) was 0.608 and the relative viability (NCI-H650; first compound 2.53 µM) was 0.718. It also gave a relative viability (NCI-H650; first compound 8 µM) of 0.766, a relative viability (NCI-H2126; first compound 0.08 µM) of 0.698 and a relative viability (NCI-H2126; first compound 0.253 µM) of 0.783. For the same compound, the relative viability (NCI-H2126; first compound 0.8 µM) was 0.703, the relative viability (NCI-H2126; first compound 2.53 µM) was 0.683 and the relative viability (NCI-H2126; first compound 8 µM) was 0.711. The relative viability (NCI-H1395; first compound 0.08 µM) was 1.11, the relative viability (NCI-H1395; first compound 0.253 µM) was 1.05 and the relative viability (NCI-H1395; first compound 0.8 µM) was 1.12. For the same compound, the relative viability (NCI-H1395; first compound 2.53 µM) was 1.11, the relative viability (NCI-H1395; first compound 8 µM) was 1.25 and the relative viability (HARA; first compound 0.08 µM) was 0.861. It also gave a relative viability (HARA; first compound 0.253 µM) of 0.954, a relative viability (HARA; first compound 0.8 µM) of 0.915 and a relative viability (HARA; first compound 8 µM) of 0.97. It also gave a relative viability (HCC-44; first compound 0.08 µM) of 0.598, a relative viability (HCC-44; first compound 0.253 µM) of 0.633 and a relative viability (HCC-44; first compound 0.8 µM) of 0.618. For the same compound, the relative viability (HCC-44; first compound 2.53 µM) was 0.453, the relative viability (HCC-44; first compound 8 µM) was 0.667 and the relative viability (201T; first compound 0.08 µM) was 1.01. For the same compound, the relative viability (201T; first compound 0.253 µM) was 1.06, the relative viability (201T; first compound 0.8 µM) was 1.1 and the relative viability (201T; first compound 2.53 µM) was 1.02. The relative viability (201T; first compound 8 µM) was 1.1, the relative viability (NCI-H23; first compound 0.08 µM) was 0.541 and the relative viability (NCI-H23; first compound 0.253 µM) was 0.784. It also gave a relative viability (NCI-H23; first compound 0.8 µM) of 0.506, a relative viability (NCI-H23; first compound 2.53 µM) of 0.557 and a relative viability (NCI-H23; first compound 8 µM) of 0.561. The relative viability (EMC-BAC-2; first compound 0.08 µM) was 0.791, the relative viability (EMC-BAC-2; first compound 0.253 µM) was 0.754 and the relative viability (EMC-BAC-2; first compound 0.8 µM) was 0.831. For the same compound, the relative viability (EMC-BAC-2; first compound 2.53 µM) was 0.761, the relative viability (EMC-BAC-2; first compound 8 µM) was 0.831 and the relative viability (NCI-H1993; first compound 0.08 µM) was 0.705. For the same compound, the relative viability (NCI-H1993; first compound 0.253 µM) was 0.773, the relative viability (NCI-H1993; first compound 0.8 µM) was 0.751 and the relative viability (NCI-H1993; first compound 2.53 µM) was 0.744. The relative viability (NCI-H1993; first compound 8 µM) was 0.763, the relative viability (NCI-H596; first compound 0.08 µM) was 1.01 and the relative viability (NCI-H596; first compound 0.253 µM) was 1.09. For the same compound, the relative viability (NCI-H596; first compound 0.8 µM) was 1.01, the relative viability (NCI-H596; first compound 2.53 µM) was 0.911 and the relative viability (NCI-H596; first compound 8 µM) was 1.03. The relative viability (NCI-H3122; first compound 0.08 µM) was 1.02, the relative viability (NCI-H3122; first compound 0.253 µM) was 1.06 and the relative viability (NCI-H3122; first compound 0.8 µM) was 1.04. The relative viability (NCI-H3122; first compound 8 µM) was 1.1, the relative viability (NCI-H2347; first compound 0.08 µM) was 1.01 and the relative viability (NCI-H2347; first compound 0.253 µM) was 0.959. The relative viability (NCI-H2347; first compound 0.8 µM) was 0.598, the relative viability (NCI-H2347; first compound 2.53 µM) was 0.88 and the relative viability (NCI-H2347; first compound 8 µM) was 1.07. For the same compound, the relative viability (NCI-H2023; first compound 0.08 µM) was 0.701, the relative viability (NCI-H2023; first compound 0.253 µM) was 0.824 and the relative viability (NCI-H2023; first compound 0.8 µM) was 0.473. For the same compound, the relative viability (NCI-H2023; first compound 2.53 µM) was 0.658, the relative viability (NCI-H2023; first compound 8 µM) was 0.753 and the relative viability (NCI-H1666; first compound 0.08 µM) was 0.79. It also gave a relative viability (NCI-H1666; first compound 0.253 µM) of 1.01, a relative viability (NCI-H1666; first compound 0.8 µM) of 0.816 and a relative viability (NCI-H1666; first compound 2.53 µM) of 0.858. For the same compound, the relative viability (NCI-H1666; first compound 8 µM) was 0.644, the relative viability (NCI-H2009; first compound 0.08 µM) was 1.19 and the relative viability (NCI-H2009; first compound 0.253 µM) was 1.09. The relative viability (NCI-H2009; first compound 0.8 µM) was 1.11, the relative viability (NCI-H2009; first compound 2.53 µM) was 1.02 and the relative viability (NCI-H2009; first compound 8 µM) was 0.997. The relative viability (BEN; first compound 0.08 µM) was 0.847, the relative viability (BEN; first compound 0.253 µM) was 0.982 and the relative viability (BEN; first compound 0.8 µM) was 0.937. For the same compound, the relative viability (BEN; first compound 2.53 µM) was 0.873, the relative viability (BEN; first compound 8 µM) was 0.854 and the relative viability (NCI-H727; first compound 0.08 µM) was 0.277. It also gave a relative viability (NCI-H727; first compound 0.253 µM) of 0.614, a relative viability (NCI-H727; first compound 0.8 µM) of 0.263 and a relative viability (NCI-H727; first compound 2.53 µM) of 0.183. For the same compound, the relative viability (NCI-H727; first compound 8 µM) was 0.283.
